In US9981942B2, “Piperidine derivatives having multimodal activity against pain” (LABORATORIOS DEL DR. ESTEVE S.A., priority 2013, dated 2018):

Biological target: σ1 receptor and the μ-opiod receptor
Assay: μ and σ1 dual binding: combined class from the Ki of both radioligand assays
Parameters: species or system human; key to μ and σ1 dual binding: +: Both Ki-μ and Ki-σ1>=500 nM; ++: One Ki<500 nM while the other Ki is >=500 nM; +++: Both Ki-μ and Ki-σ1<500 nM; ++++: Both Ki-μ and Ki-σ1<100 nM
Conditions: transfected HEK-293 membranes (σ1), transfected CHO-K1 cell membranes (μ); for μ and σ1 dual binding: combined class for Ki-μ and Ki-σ1
Description: To investigate binding properties of σ1 receptor ligands to human σ1 receptor, transfected HEK-293 membranes and [^3H](+)-pentazocine (Perkin Elmer, NET-1056), as the radioligand, were used. The assay was carried out with 7 μg of membrane suspension, 5 nM of [^3H](+)-pentazocine in either absence or presence of either buffer or 10 μM Haloperidol for total and non-specific binding, respectively. Binding buffer contained Tris-HCl 50 mM at pH 8. Plates were incubated at 37° C. for 120 minutes. After the incubation period, the reaction mix was then transferred to MultiScreen HTS, FC plates (Millipore), filtered and plates were washed 3 times with ice-cold 10 mM Tris-HCL (pH7.4). Filters were dried and counted at approximately 40% efficiency in a MicroBeta scintillation counter (Perkin-Elmer) using EcoScint liquid scintillation cocktail
To investigate binding properties of mu-opioid receptor ligands to human μ-opioid receptor, transfected CHO-K1 cell membranes and [^3H]-DAMGO (Perkin Elmer, ES-542-C), as the radioligand, were used. The assay was carried out with 20 μg of membrane suspension, 1 nM of [^3H]-DAMGO in either absence or presence of either buffer or 10 μM Naloxone for total and non-specific binding, respectively. Binding buffer contained Tris-HCl 50 mM, MgCl2 5 mM at pH 7.4. Plates were incubated at 27° C. for 60 minutes. After the incubation period, the reaction mix was then transferred to MultiScreen HTS, FC plates (Millipore), filtered and plates were washed 3 times with ice-cold 10 mM Tris-HCL (pH 7.4). Filters were dried and counted at approximately 40% efficiency in a MicroBeta scintillation counter (Perkin-Elmer) using EcoScint liquid scintillation cocktail.
The following scale as been adopted for representing the binding to the σ1 receptor and the μ-opiod receptor expressed as Ki: • + Both Ki-μ and Ki-σ1>=500 nM • ++ One Ki<500 nM while the other Ki is >=500 nM • +++ Both Ki-μ and Ki-σ1<500 nM • ++++ Both Ki-μ and Ki-σ1<100 nM

SMILES: Oc1cccc(C2CCN(Cc3cn(C4CCC(F)(F)CC4)nn3)CC2)c1 [Example 64, 3-(1-((1-(4,4-difluorocyclohexyl)-1H-1,2,3-triazol-4-yl)methyl)piperidin-4-yl)phenol]
- Ki range for both μ and σ1 (dual-binding class): < 100 nM

SMILES: CCNC(=O)Nc1cccc(C2CCN(Cc3cn(Cc4ccccn4)nn3)CC2)c1 [Example 111, 1-ethyl-3-(3-(1-((1-(pyridin-2-ylmethyl)-1H-1,2,3-triazol-4-yl)methyl)piperidin-4-yl)phenyl)urea]
- Ki range for both μ and σ1 (dual-binding class): ≥ 500 nM

SMILES: Oc1cccc(C2CCN(Cc3cn(-c4ncccc4C(F)(F)F)nn3)CC2)c1 [Example 218, 3-(1-((1-(3-(trifluoromethyl)pyridin-2-yl)-1H-1,2,3-triazol-4-yl)methyl)piperidin-4-yl)phenol]
- Ki range for both μ and σ1 (dual-binding class): < 500 nM

SMILES: CS(=O)(=O)Nc1ccc(F)c(C2CCN(Cc3cn(Cc4ccccc4)nn3)CC2)c1 [Example 87, N-(3-(1-((1-benzyl-1H-1,2,3-triazol-4-yl)methyl)piperidin-4-yl)-4-fluorophenyl)methanesulfonamide]
- Ki range for both μ and σ1 (dual-binding class): < 500 nM

SMILES: CS(=O)(=O)Nc1cccc(C2CCN(Cc3cn(C4CCCCC4)nn3)CC2)c1 [Example 22, N-(3-(1-((1-cyclohexyl-1H-1,2,3-triazol-4-yl)methyl)piperidin-4-yl)phenyl)methanesulfonamide]
- Ki range for both μ and σ1 (dual-binding class): < 500 nM

SMILES: CC(C)S(=O)(=O)Nc1cccc(C2CCN(Cc3cn(Cc4ccc(F)cn4)nn3)CC2)n1 [Example 210, N-(6-(1-((1-((5-fluoropyridin-2-yl)methyl)-1H-1,2,3-triazol-4-yl)methyl)piperidin-4-yl)pyridin-2-yl)propane-2-sulfonamide]
- μ and σ1 dual binding: ++

SMILES: CS(=O)(=O)Nc1ccnc(C2CCN(Cc3cn(-c4ccccc4)nn3)CC2)c1 [Example 193, N-(2-(1-((1-phenyl-1H-1,2,3-triazol-4-yl)methyl)piperidin-4-yl)pyridin-4-yl)methanesulfonamide]
- Ki range for both μ and σ1 (dual-binding class): ≥ 500 nM

SMILES: Oc1ccc(-n2cc(CN3CCC(c4cccc(O)c4)CC3)nn2)nc1 [Example 220, 6-(4-((4-(3-hydroxyphenyl)piperidin-1-yl)methyl)-1H-1,2,3-triazol-1-yl)pyridin-3-ol]
- μ and σ1 dual binding: ++

SMILES: Oc1cccc(C2CCN(CCc3cn(-c4ccccc4)nn3)CC2)c1 [Example 162, 3-(1-(2-(1-phenyl-1H-1,2,3-triazol-4-yl)ethyl)piperidin-4-yl)phenol]
- Ki range for both μ and σ1 (dual-binding class): < 100 nM

SMILES: CC(C)S(=O)(=O)Nc1cccc(C2CCN(Cc3cn([C@H]4c5ccccc5C[C@@H]4O)nn3)CC2)c1 [Example 105, N-(3-(1-((1-((1S,2S)-2-hydroxy-2,3-dihydro-1H-inden-1-yl)-1H-1,2,3-triazol-4-yl)methyl)piperidin-4-yl)phenyl)propane-2-sulfonamide]
- μ and σ1 dual binding: ++

SMILES: Oc1cccc(C2CCN(Cc3cn(-c4ncccc4Cl)nn3)CC2)c1 [Example 161, 3-(1-((1-(3-chloropyridin-2-yl)-1H-1,2,3-triazol-4-yl)methyl)piperidin-4-yl)phenol]
- Ki range for both μ and σ1 (dual-binding class): < 500 nM

SMILES: CC(C)S(=O)(=O)Nc1cccc(C2CCN(Cc3cn(Cc4ncccc4F)nn3)CC2)c1 [Example 114, N-(3-(1-((1-((3-fluoropyridin-2-yl)methyl)-1H-1,2,3-triazol-4-yl)methyl)piperidin-4-yl)phenyl)propane-2-sulfonamide]
- Ki range for both μ and σ1 (dual-binding class): < 500 nM

SMILES: Oc1cccc(C2CCN(Cc3cn([C@@H]4Cc5ccccc5[C@@H]4O)nn3)CC2)c1 [Example 96, (1S,2R)-2-(4-((4-(3-hydroxyphenyl)piperidin-1-yl)methyl)-1H-1,2,3-triazol-1-yl)-2,3-dihydro-1H-inden-1-ol]
- Ki range for both μ and σ1 (dual-binding class): < 500 nM

SMILES: Oc1cccc(C2CCN(Cc3cn(C4CCc5ccccc54)nn3)CC2)c1 (centres unmarked) [Example 46, 3-(1-((1-(2,3-dihydro-1H-inden-1-yl)-1H-1,2,3-triazol-4-yl)methyl)piperidin-4-yl)phenol]
- Ki range for both μ and σ1 (dual-binding class): < 100 nM

SMILES: Oc1ncccc1C1CCN(Cc2cn(-c3ccccc3)nn2)CC1 [Example 205, 3-(1-((1-phenyl-1H-1,2,3-triazol-4-yl)methyl)piperidin-4-yl)pyridin-2-ol]
- μ and σ1 dual binding: ++

SMILES: Oc1cccc(C2CCN(Cc3cn(Cc4cccnc4)nn3)CC2)c1 [Example 145, 3-(1-((1-(pyridin-3-ylmethyl)-1H-1,2,3-triazol-4-yl)methyl)piperidin-4-yl)phenol]
- Ki range for both μ and σ1 (dual-binding class): < 500 nM

SMILES: Fc1ccc(Nc2cccc(C3CCN(Cc4cn(Cc5ccccn5)nn4)CC3)c2)nc1 [Example 232, 5-fluoro-N-(3-(1-((1-(pyridin-2-ylmethyl)-1H-1,2,3-triazol-4-yl)methyl)piperidin-4-yl)phenyl)pyridin-2-amine]
- Ki range for both μ and σ1 (dual-binding class): < 500 nM

SMILES: CS(=O)(=O)Nc1cccc(C2CCN(Cc3cn([C@@H]4Cc5ccccc5[C@H]4O)nn3)CC2)c1 [Example 100, N-(3-(1-((1-((1R,2R)-1-hydroxy-2,3-dihydro-1H-inden-2-yl)-1H-1,2,3-triazol-4-yl)methyl)piperidin-4-yl)phenyl)methanesulfonamide]
- μ and σ1 dual binding: ++

SMILES: Oc1cccc(C2CCN(Cc3cn(-c4ccc(F)cc4)nn3)CC2)c1 [Example 36, 3-(1-((1-(4-fluorophenyl)-1H-1,2,3-triazol-4-yl)methyl)piperidin-4-yl)phenol]
- Ki range for both μ and σ1 (dual-binding class): < 100 nM

SMILES: CC(C)S(=O)(=O)Nc1cccc(C2CCN(Cc3cn(Cc4ccc(Cl)cn4)nn3)CC2)n1 [Example 213, N-(6-(1-((1-((5-chloropyridin-2-yl)methyl)-1H-1,2,3-triazol-4-yl)methyl)piperidin-4-yl)pyridin-2-yl)propane-2-sulfonamide]
- μ and σ1 dual binding: ++

SMILES: Oc1cccc(C2CCN(Cc3cn(-c4ccc(C(F)(F)F)cc4F)nn3)CC2)c1 [Example 226, 3-(1-((1-(2-fluoro-4-(trifluoromethyl)phenyl)-1H-1,2,3-triazol-4-yl)methyl)piperidin-4-yl)phenol]
- Ki range for both μ and σ1 (dual-binding class): < 100 nM

SMILES: O=c1[nH]c2cccc(C3CCN(Cc4cn(-c5ccccc5)nn4)CC3)c2[nH]1 [Example 13, 4-(1-((1-phenyl-1H-1,2,3-triazol-4-yl)methyl)piperidin-4-yl)-1H-benzo[d]imidazol-2(3H)-one]
- μ and σ1 dual binding: ++

SMILES: CC(C)S(=O)(=O)Nc1cccc(C2CCN(Cc3cn(Cc4cccc(C(F)(F)F)n4)nn3)CC2)c1 [Example 117, N-(3-(1-((1-((6-(trifluoromethyl)pyridin-2-yl)methyl)-1H-1,2,3-triazol-4-yl)methyl)piperidin-4-yl)phenyl)propane-2-sulfonamide]
- μ and σ1 dual binding: ++

SMILES: CN(C)C(=O)Nc1cccc(C2CCN(Cc3cn(-c4ccccc4)nn3)CC2)c1 [Example 38, 1,1-dimethyl-3-(3-(1-((1-phenyl-1H-1,2,3-triazol-4-yl)methyl)piperidin-4-yl)phenyl)urea]
- μ and σ1 dual binding: ++

SMILES: NS(=O)(=O)c1cccc(C2CCN(Cc3cn(Cc4ccccn4)nn3)CC2)c1 [Example 141, 3-(1-((1-(pyridin-2-ylmethyl)-1H-1,2,3-triazol-4-yl)methyl)piperidin-4-yl)benzenesulfonamide]
- Ki range for both μ and σ1 (dual-binding class): ≥ 500 nM

SMILES: CS(=O)(=O)Nc1cccc(C2CCN(Cc3cn(Cc4ccccc4)cn3)CC2)c1 [Example 183, N-(3-(1-((1-benzyl-1H-imidazol-4-yl)methyl)piperidin-4-yl)phenyl)methanesulfonamide]
- Ki range for both μ and σ1 (dual-binding class): < 500 nM
